In US20050101595A1, “N-containing cycloalkyl-substituted amino-thiazole derivatives and pharmaceutical compositions for inhibiting cell proliferation and methods for their use” (PFIZER INC., priority 2003, published 2005):

Legend:
CDK2/Cyclin A = CDK2/Cyclin A (Homo sapiens, UniProt P24941); assay: Inhibition of CDK2/Cyclin A Retinoblastoma Kinase Activity; format: biochemical; details: 0.03 μM compound, Table 2
Outline: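 Baculovirus-expressed CDK2 complexed with proteolyzed cyclin A (10 or 19 nM), Rb fragment substrate, 25 μM [32P/33P]ATP, HEPES pH 7.4, 30 °C for 60 or 75 min under initial-rate conditions. Filter capture and phosphorimager readout; apparent Ki fitted to competitive or tight-binding competitive inhibition.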

[1] = target: human CDK4 and genetically truncated (1-264) cyclin D3 (Homo sapiens, UniProt P11802); assay: Inhibition of CDK4/Cyclin D Retinoblastoma Kinase Activity; format: biochemical; details: 0.03 μM compound, Table 2
Outline: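 Human CDK4/truncated cyclin D3 (1-264) complex from baculovirus-infected insect cells, 5 nM, phosphorylating Rb fragment (residues 386-928, His-tagged) with 25 μM [32/33P]ATP in HEPES pH 7.4, MgCl2, 2% DMSO at 30° C. for 20 min (60 min for tight binders). Filter-captured radioactivity by phosphorimager; apparent Ki from competitive or tight-binding fits.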

HCT-116 cell line = assay: Inhibition of cell growth, tetrazolium salt (MTT) assay; format: cell-based; details: 0.25 μM compound, HCT-116, Table 2
Outline: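 Cells in McCoy's 5A medium were left 4 h, then given graded compound concentrations in 0.5% (v/v) DMSO and incubated three to five days at 37° C (5% CO2). MTT was added to 0.2 mg/mL for 4 h more; DMSO-solubilized formazan was read at 540 nm against 0.5% DMSO-only controls.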

Chain of human CDK4 and genetically truncated (1-264) cyclin D3 (P11802 whole entry, the tested form may be a part): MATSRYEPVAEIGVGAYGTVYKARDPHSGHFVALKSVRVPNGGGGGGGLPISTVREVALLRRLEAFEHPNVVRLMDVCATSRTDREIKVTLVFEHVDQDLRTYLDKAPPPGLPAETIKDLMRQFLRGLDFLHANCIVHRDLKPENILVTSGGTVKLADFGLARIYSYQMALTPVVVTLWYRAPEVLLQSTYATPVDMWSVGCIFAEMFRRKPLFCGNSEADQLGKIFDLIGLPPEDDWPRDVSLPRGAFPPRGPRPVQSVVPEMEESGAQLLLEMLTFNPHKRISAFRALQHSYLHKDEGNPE
Chain of human CDK4 and genetically truncated (1-264) cyclin D3 (P30281 1-264 partner): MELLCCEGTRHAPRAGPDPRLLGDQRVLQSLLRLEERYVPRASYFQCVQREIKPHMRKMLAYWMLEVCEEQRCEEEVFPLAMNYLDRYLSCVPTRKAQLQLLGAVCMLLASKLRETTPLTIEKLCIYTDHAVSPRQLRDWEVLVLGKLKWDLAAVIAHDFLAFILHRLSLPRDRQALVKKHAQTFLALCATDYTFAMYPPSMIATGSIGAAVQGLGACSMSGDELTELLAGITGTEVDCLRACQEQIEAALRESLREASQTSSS

Row | SMILES | CDK2 % Inhibition At 0.03 μM (CDK2/Cyclin A) [%] | CDK4 % Inhibition at 0.03 μM [1] [%] | CDK2 % Inhibition At 0.03 μM (CDK2/Cyclin A; 0.03 µM) [%] | CDK4 % Inhibition at 0.03 μM ([1]; 0.03 µM) [%] | HCT-116 % Inhibition at 0.25 μM (HCT-116 cell line) [%] | HCT-116 % Inhibition at 0.25 μM (HCT-116 cell line; 0.25 µM) [%]
1 | Nc1nc(NC2CCN(C(=O)Nc3ccc(Oc4ccccc4)cc3)CC2)sc1C(=O)c1c(F)cccc1F [Example O52] | 24 | 11 |  |  | 33 | 
2 | Nc1nc(NC2CCN(C(=O)NCCc3ccccc3)CC2)sc1C(=O)c1c(F)cccc1F [Example O57] | 28 | −2 |  |  | 41 | 
3 | CCCCCCNC(=O)N1CCC(Nc2nc(N)c(C(=O)c3c(F)cccc3F)s2)CC1 [Example O58] | 34 | 6 |  |  | 42 | 
4 | Nc1nc(NC2CCN(C(=O)NC(=O)Oc3ccccc3)CC2)sc1C(=O)c1c(F)cccc1F [Example O62] | 36 | 18 |  |  | 41 | 
5 | Nc1nc(NC2CCN(C(=O)Nc3ccc(-c4ccccc4)cc3)CC2)sc1C(=O)c1c(F)cccc1F [Example O63] | 28 | 4 |  |  | 40 | 
6 | Nc1nc(NC2CCN(C(=O)NCCc3cccs3)CC2)sc1C(=O)c1c(F)cccc1F [Example O65] | 22 | −7 |  |  | 44 | 
7 | CC(NC(=O)N1CCC(Nc2nc(N)c(C(=O)c3c(F)cccc3F)s2)CC1)c1ccccc1 (stereo not drawn) [Example O66] |  |  | 32 | −1 |  | 36
8 | CC(NC(=O)N1CCC(Nc2nc(N)c(C(=O)c3c(F)cccc3F)s2)CC1)c1cccc2ccccc12 (stereo not drawn) [Example O67] | 31 | 8 |  |  | 50 | 
9 | CCOC(=O)C(CC(C)C)NC(=O)N1CCC(Nc2nc(N)c(C(=O)c3c(F)cccc3F)s2)CC1 (stereo not drawn) [Example O69] | 29 | 5 |  |  | 51 | 
10 | CCOC(=O)CCCCCNC(=O)N1CCC(Nc2nc(N)c(C(=O)c3c(F)cccc3F)s2)CC1 [Example O70] | 28 | 7 |  |  | 52 | 
11 | CCOC(=O)C(CCSC)NC(=O)N1CCC(Nc2nc(N)c(C(=O)c3c(F)cccc3F)s2)CC1 (stereo not drawn) [Example O71] | 30 | 7 |  |  | 51 | 
12 | CCOC(=O)CCNC(=O)N1CCC(Nc2nc(N)c(C(=O)c3c(F)cccc3F)s2)CC1 [Example O73] | 29 | 4 |  |  | 42 | 
13 | CCOC(=O)C(Cc1ccccc1)NC(=O)N1CCC(Nc2nc(N)c(C(=O)c3c(F)cccc3F)s2)CC1 (stereo not drawn) [Example O75] | 25 | 10 |  |  | 41 | 
14 | COC(=O)[C@H](CC(C)C)NC(=O)N1CCC(Nc2nc(N)c(C(=O)c3c(F)cccc3F)s2)CC1 [Example O77] | 24 | 8 |  |  | 43 | 
15 | COC(=O)[C@H](Cc1ccccc1)NC(=O)N1CCC(Nc2nc(N)c(C(=O)c3c(F)cccc3F)s2)CC1 [Example O78] | 25 | 14 |  |  | 47 | 

Second part, led by results:

Row | CDK2 % Inhibition At 0.03 μM (CDK2/Cyclin A) [%] | CDK4 % Inhibition at 0.03 μM [1] [%] | CDK2 % Inhibition At 0.03 μM (CDK2/Cyclin A; 0.03 µM) [%] | CDK4 % Inhibition at 0.03 μM ([1]; 0.03 µM) [%] | SMILES | HCT-116 % Inhibition at 0.25 μM (HCT-116 cell line) [%] | HCT-116 % Inhibition at 0.25 μM (HCT-116 cell line; 0.25 µM) [%]
16 | 35 | 17 |  |  | COc1cc(NC(=O)N2CCC(Nc3nc(N)c(C(=O)c4c(F)cccc4F)s3)CC2)cc(OC)c1 [Example O45] | 32 | 
17 | 29 | 15 |  |  | CCOC(=O)c1cccc(NC(=O)N2CCC(Nc3nc(N)c(C(=O)c4c(F)cccc4F)s3)CC2)c1 [Example O46] | 41 | 
18 | 35 | 14 |  |  | CC(=O)c1cccc(NC(=O)N2CCC(Nc3nc(N)c(C(=O)c4c(F)cccc4F)s3)CC2)c1 [Example O47] | 35 | 
19 | 28 | 11 |  |  | Cc1ccc(NC(=O)N2CCC(Nc3nc(N)c(C(=O)c4c(F)cccc4F)s3)CC2)cc1C [Example O48] | 16 | 
20 | 33 | −1 |  |  | Cc1cc(C)cc(NC(=O)N2CCC(Nc3nc(N)c(C(=O)c4c(F)cccc4F)s3)CC2)c1 [Example O49] | 20 | 
21 | 37 | 13 |  |  | COc1ccc(C)cc1NC(=O)N1CCC(Nc2nc(N)c(C(=O)c3c(F)cccc3F)s2)CC1 [Example O50] | 62 | 
22 | 30 | 7 |  |  | Nc1nc(NC2CCN(C(=O)Nc3ccc(Cl)c(C(F)(F)F)c3)CC2)sc1C(=O)c1c(F)cccc1F [Example O51] | 11 | 
23 | 30 | 11 |  |  | CC(=O)c1ccc(NC(=O)N2CCC(Nc3nc(N)c(C(=O)c4c(F)cccc4F)s3)CC2)cc1 [Example O53] | 41 | 
24 | 34 | 15 |  |  | Nc1nc(NC2CCN(C(=O)Nc3ccc4ccccc4c3)CC2)sc1C(=O)c1c(F)cccc1F [Example O54] | 46 | 
25 | 28 | 10 |  |  | Cc1cc(C)c(NC(=O)N2CCC(Nc3nc(N)c(C(=O)c4c(F)cccc4F)s3)CC2)c(C)c1 [Example O55] | 41 | 
26 | 29 | 9 |  |  | N#Cc1ccc(NC(=O)N2CCC(Nc3nc(N)c(C(=O)c4c(F)cccc4F)s3)CC2)cc1 [Example O56] | 37 | 
27 | 28 | 7 |  |  | COC(=O)c1cc(NC(=O)N2CCC(Nc3nc(N)c(C(=O)c4c(F)cccc4F)s3)CC2)cc(C(=O)OC)c1 [Example O59] | 32 | 
28 | 24 | 12 |  |  | COC(=O)c1cccc(NC(=O)N2CCC(Nc3nc(N)c(C(=O)c4c(F)cccc4F)s3)CC2)c1 [Example O60] | 39 | 
29 | 33 | 12 |  |  | COC(=O)NC(=O)N1CCC(Nc2nc(N)c(C(=O)c3c(F)cccc3F)s2)CC1 [Example O61] | 38 | 
30 | 32 | 7 |  |  | Nc1nc(NC2CCN(C(=O)Nc3cc(Cl)nc(Cl)c3)CC2)sc1C(=O)c1c(F)cccc1F [Example O64] | 37 | 
31 | 24 | 11 |  |  | CCOC(=O)C(C)NC(=O)N1CCC(Nc2nc(N)c(C(=O)c3c(F)cccc3F)s2)CC1 (stereo not drawn) [Example O72] | 62 | 
32 | 35 | 102 |  |  | CCOC(=O)C(NC(=O)N1CCC(Nc2nc(N)c(C(=O)c3c(F)cccc3F)s2)CC1)C(C)C (stereo not drawn) [Example O74] | 34 | 
33 | 22 | 5 |  |  | COC(=O)[C@@H](NC(=O)N1CCC(Nc2nc(N)c(C(=O)c3c(F)cccc3F)s2)CC1)C(C)C [Example O76] | 49 | 
